Measured values: PubChem BioAssay AID248 (DTP/NCI, 2004)
Values joined by “and” are separate entries in the source; they are usually repeats but may differ in a detail not shown here. Equal values may be shown once. Inconclusive results and toxic doses are left out. Rule as the data show it: active = T/C of 150% or more; inactive = T/C below 125%.

Test system: L1210 leukemia ip in BDF1 mice, survival T/C
Assay: NCI In Vivo Anticancer Drug Screen. Data for tumor model L1210 Leukemia (intraperitoneal) in B6D2F1 (BDF1) mice
Settings: endpoint: mean survival time, higher = longer survival
Outline: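 Survival endpoint. Drug-treated group vs vehicle group, expressed as T divided by C. Tumor passaged by transplantation.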

[1] = dose: 100.0 mg/kg/injection, schedule: Q01DX009 (ip), vehicle: saline with Tween-80
[2] = dose: 200.0 mg/kg/injection, schedule: Q01DX009 (ip), vehicle: saline with Tween-80
[3] = dose: 400.0 mg/kg/injection, schedule: Q01DX009 (ip), vehicle: saline with Tween-80
[4] = dose: 50.0 mg/kg/injection, schedule: Q01DX009 (ip), vehicle: saline
[5] = dose: 100.0 mg/kg/injection, schedule: Q01DX009 (ip), vehicle: saline
[6] = dose: 100.0 mg/kg/injection, schedule: Q04DX003 (ip), vehicle: saline
[7] = dose: 200.0 mg/kg/injection, schedule: Q04DX003 (ip), vehicle: saline
[8] = dose: 100.0 mg/kg/injection, schedule: Q04DX003 (ip), vehicle: saline with Tween-80
[9] = dose: 200.0 mg/kg/injection, schedule: Q04DX003 (ip), vehicle: saline with Tween-80
[10] = dose: 400.0 mg/kg/injection, schedule: Q04DX003 (ip), vehicle: saline with Tween-80
[11] = dose: 100.0 mg/kg/injection, schedule: Q01DX001 (ip), vehicle: Klucel (hydroxypropylcellulose) (HPC)
[12] = dose: 200.0 mg/kg/injection, schedule: Q01DX001 (ip), vehicle: Klucel (hydroxypropylcellulose) (HPC)
[13] = dose: 100.0 mg/kg/injection, schedule: Q01DX009 (ip), vehicle: Klucel (hydroxypropylcellulose) (HPC)
[14] = dose: 200.0 mg/kg/injection, schedule: Q01DX009 (ip), vehicle: Klucel (hydroxypropylcellulose) (HPC)
[15] = dose: 400.0 mg/kg/injection, schedule: Q01DX009 (ip), vehicle: Klucel (hydroxypropylcellulose) (HPC)

Measured: T/C

CC(=O)OCC(C)CCC(=O)C(C)C1C(=O)CC2C3CC=C4CC(OC(C)=O)CCC4(C)C3CCC21C (configuration not stated)
inactive: [1] 96 % of control | [2] 97 % of control | [3] 96 % of control

Cc1nc2ccc(O)cc2cc1CO
inactive: [4] 100 % of control | [5] 87 % of control | [6] 104 % of control | dose: 200.0 mg/kg/injection, schedule: Q01DX009 (ip), vehicle: saline 89 % of control | [7] 103 % of control | dose: 400.0 mg/kg/injection, schedule: Q01DX009 (ip), vehicle: saline 113 % of control | dose: 400.0 mg/kg/injection, schedule: Q04DX003 (ip), vehicle: saline 109 % of control

COC(=O)c1ccccc1C(=O)OCC(C)(C)[N+](=O)[O-]
inactive: dose: 100.0 mg/kg/injection, schedule: Q04DX003 (ip), vehicle: Klucel (hydroxypropylcellulose) (HPC) 100 % of control | dose: 200.0 mg/kg/injection, schedule: Q04DX003 (ip), vehicle: Klucel (hydroxypropylcellulose) (HPC) 97 % of control | dose: 400.0 mg/kg/injection, schedule: Q04DX003 (ip), vehicle: Klucel (hydroxypropylcellulose) (HPC) 107 % of control

CCC(C(=O)O)N(C)Cc1ccccc1 (configuration not stated)
inactive: [1] 92 % of control | [2] 89 % of control | [3] 89 % of control

Cc1ccc(Nc2nc(N)nc(N)c2C=O)cc1C
inactive: dose: 50.0 mg/kg/injection, schedule: Q01DX001 (ip), vehicle: saline 109 % of control | dose: 100.0 mg/kg/injection, schedule: Q01DX001 (ip), vehicle: saline 109 % of control | dose: 200.0 mg/kg/injection, schedule: Q01DX001 (ip), vehicle: saline 100 % of control | dose: 400.0 mg/kg/injection, schedule: Q01DX001 (ip), vehicle: saline 97 % of control

CC(C)(C)SC(=O)Cc1ccc([N+](=O)[O-])cc1
inactive: dose: 50.0 mg/kg/injection, schedule: Q04DX002 (ip), vehicle: saline with Tween-80 90 % of control | dose: 100.0 mg/kg/injection, schedule: Q04DX002 (ip), vehicle: saline with Tween-80 100 % of control | dose: 200.0 mg/kg/injection, schedule: Q04DX002 (ip), vehicle: saline with Tween-80 93 % of control | dose: 400.0 mg/kg/injection, schedule: Q04DX002 (ip), vehicle: saline with Tween-80 87 % of control

CC(C)(c1cc(Cl)c(OCCO)c(Cl)c1)c1cc(Cl)c(OCCO)c(Cl)c1
inactive: [1] 103 % of control | [2] 103 % of control | [3] 95 % of control

Cc1ccc(NC(=O)C2CCC(C)(C(=O)O)C2(C)C)cc1 (configuration not stated)
inactive: dose: 50.0 mg/kg/injection, schedule: Q01DX009 (ip), vehicle: saline with Tween-80 104 % of control | [1] 101 % of control | [2] 93 % of control

COC(=O)C(NC(=O)c1ccccc1)C(C)(C)SCc1ccccc1 (configuration not stated)
inactive: dose: 100.0 mg/kg/injection, schedule: Q04DX003 (ip), vehicle: other 92 % of control | dose: 200.0 mg/kg/injection, schedule: Q04DX003 (ip), vehicle: other 96 % of control | dose: 400.0 mg/kg/injection, schedule: Q04DX003 (ip), vehicle: other 92 % of control

[Cl][Bi]([Cl])([c]1ccccc1)([c]1ccccc1)[c]1ccccc1
inactive: dose: 100.0 mg/kg/injection, schedule: Q04DX002 (ip), vehicle: Klucel (hydroxypropylcellulose) (HPC) 98 % of control | dose: 200.0 mg/kg/injection, schedule: Q04DX002 (ip), vehicle: Klucel (hydroxypropylcellulose) (HPC) 92 % of control | dose: 400.0 mg/kg/injection, schedule: Q04DX002 (ip), vehicle: Klucel (hydroxypropylcellulose) (HPC) 98 % of control

CC(=O)NC(C(C)=O)C(C)=O.CC(=O)NC(C(C)=O)C(C)=O.[Cu]
inactive: dose: 12.0 mg/kg/injection, schedule: Q01DX001 (ip), vehicle: saline 90 % of control | dose: 25.0 mg/kg/injection, schedule: Q01DX001 (ip), vehicle: saline 88 % of control

S=c1cc(-c2ccccc2)ss1
inactive: [1] 98 % of control | [8] 93 % of control and 102 % of control | [2] 89 % of control | [9] 91 % of control and 100 % of control | [3] 96 % of control | [10] 96 % of control and 91 % of control

Cc1nc(S(C)(=O)=O)nc(S(C)(=O)=O)c1Cl
inactive: dose: 1.5 mg/kg/injection, schedule: Q01DX001 (ip), vehicle: Klucel (hydroxypropylcellulose) (HPC) 92 % of control | dose: 3.0 mg/kg/injection, schedule: Q01DX001 (ip), vehicle: Klucel (hydroxypropylcellulose) (HPC) 95 % of control | dose: 6.0 mg/kg/injection, schedule: Q01DX001 (ip), vehicle: Klucel (hydroxypropylcellulose) (HPC) 104 % of control | dose: 12.0 mg/kg/injection, schedule: Q01DX001 (ip), vehicle: Klucel (hydroxypropylcellulose) (HPC) 104 % of control | dose: 12.5 mg/kg/injection, schedule: Q01DX001 (ip), vehicle: Klucel (hydroxypropylcellulose) (HPC) 107 % of control

Cc1cc(/C=N\N=C(N)N)c(C)n1-c1ccccc1
inactive: dose: 15.0 mg/kg/injection, schedule: Q01DX Z (ip), vehicle: carboxymethylcellulose (CMC) 92 % of control | dose: 30.0 mg/kg/injection, schedule: Q01DX Z (ip), vehicle: carboxymethylcellulose (CMC) 95 % of control | dose: 60.0 mg/kg/injection, schedule: Q01DX Z (ip), vehicle: carboxymethylcellulose (CMC) 89 % of control | dose: 60.0 mg/kg/injection, schedule: Q01DX Z (oral), vehicle: carboxymethylcellulose (CMC) 106 % of control | dose: 120.0 mg/kg/injection, schedule: Q01DX Z (ip), vehicle: carboxymethylcellulose (CMC) 97 % of control | dose: 120.0 mg/kg/injection, schedule: Q01DX Z (oral), vehicle: carboxymethylcellulose (CMC) 101 % of control | dose: 240.0 mg/kg/injection, schedule: Q01DX Z (oral), vehicle: carboxymethylcellulose (CMC) 95 % of control and 100 % of control | dose: 480.0 mg/kg/injection, schedule: Q01DX Z (oral), vehicle: carboxymethylcellulose (CMC) 95 % of control and 102 % of control | dose: 960.0 mg/kg/injection, schedule: Q01DX Z (oral), vehicle: carboxymethylcellulose (CMC) 103 % of control | dose: 1920.0 mg/kg/injection, schedule: Q01DX Z (oral), vehicle: carboxymethylcellulose (CMC) 107 % of control

CC(=O)Nc1ccc[n+](Cc2ccc(S(=O)(=O)F)cc2)c1
inactive: dose: 25.0 mg/kg/injection, schedule: Q04DX003 (ip), vehicle: Klucel (hydroxypropylcellulose) (HPC) 104 % of control | dose: 50.0 mg/kg/injection, schedule: Q04DX003 (ip), vehicle: Klucel (hydroxypropylcellulose) (HPC) 104 % of control

Cc1cc(Cl)ccc1NS(=O)(=O)c1cccc([N+](=O)[O-])c1
inactive: [1] 90 % of control | [2] 90 % of control | [3] 87 % of control

CS(=O)(=O)Nc1cc(C(O)C2CCCCN2)ccc1O (configuration not stated)
inactive: dose: 25.0 mg/kg/injection, schedule: Q01DX009 (ip), vehicle: saline 103 % of control | [4] 97 % of control | [5] 95 % of control | [6] 104 % of control | [7] 104 % of control

COc1cc(-c2cnc(N)nc2N)cc(OC)c1OC
inactive: [8] 97 % of control | [9] 103 % of control | [10] 95 % of control

CC(C)C(C)/C=C\C(C)C1CCC2=C3CCC4CC(O)CCC4(C)C3CCC21C (configuration not stated)
inactive: [11] 97 % of control | [12] 97 % of control | dose: 400.0 mg/kg/injection, schedule: Q01DX001 (ip), vehicle: Klucel (hydroxypropylcellulose) (HPC) 93 % of control

CCN(CC)CCn1ncc2c1C1(C)CCC2C1(C)C (configuration not stated)
inactive: dose: 25.0 mg/kg/injection, schedule: Q01DX009 (ip), vehicle: saline + alcohol 100 % of control | dose: 50.0 mg/kg/injection, schedule: Q01DX009 (ip), vehicle: saline + alcohol 104 % of control | dose: 100.0 mg/kg/injection, schedule: Q01DX009 (ip), vehicle: saline + alcohol 102 % of control | [6] 101 % of control | [7] 102 % of control

CNC(=O)Nc1cc(C)ccc1OC
inactive: [13] 100 % of control | [14] 104 % of control | [15] 109 % of control

CC(C)(C)C1CC(C(F)(F)F)(C(F)(F)F)OP(=O)(N2CCCCC2)O1 (configuration not stated)
inactive: dose: 50.0 mg/kg/injection, schedule: Q01DX001 (ip), vehicle: Klucel (hydroxypropylcellulose) (HPC) 98 % of control | [11] 100 % of control | [12] 96 % of control

C#CCNc1ncnc2c1ncn2C1OC(CO)C(O)C1O (configuration not stated)
inactive: dose: 50.0 mg/kg/injection, schedule: Q01DX005 (ip), vehicle: saline 105 % of control | dose: 100.0 mg/kg/injection, schedule: Q01DX005 (ip), vehicle: saline 101 % of control | dose: 200.0 mg/kg/injection, schedule: Q01DX005 (ip), vehicle: saline 94 % of control

Brc1cc(Br)c(/C=C/c2c(Br)cc(Br)cc2Br)c(Br)c1
inactive: [13] 104 % of control | [14] 102 % of control | [15] 105 % of control
